Assay results as given in patent US20240150377A1, “MODULATORS OF CYSTIC FIBROSIS TRANSMEMBRANE CONDUCTANCE REGULATOR” (VERTEX PHARMACEUTICALS INCORPORATED, priority 2020, published 2024).
pEC50: −log10 of the molar value. Like-named read-outs stand apart in the source and are kept apart here.

Biological target: CFTR (Homo sapiens, UniProt P13569)
Test: Membrane potential dye, Enteroid Assay A
Type: cell-based
Conditions: for Ent. A Max Activity: chloride transport as % of triple combination control (Enteroid Assay A); for pEC50: human enteroid cells, 18-24 hours, acute 10 μM forskolin and 300 nM ivacaftor, read-out: Ent. A EC50
Method in brief: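 Human intestinal enteroids incubated 18-24 h at 37 °C with test compound, then loaded with 20 μM methyl oxonol (with CaCC inhibitors). Chloride transport triggered in chloride-free buffer with 10 μM forskolin, 100 μM IBMX, 300 nM Compound III; fluorescence read 15 min, expressed as % of a triple-combination corrector/potentiator control.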

CFTR, sequence (P13569 with tags, fused parts or gaps DEL508-508): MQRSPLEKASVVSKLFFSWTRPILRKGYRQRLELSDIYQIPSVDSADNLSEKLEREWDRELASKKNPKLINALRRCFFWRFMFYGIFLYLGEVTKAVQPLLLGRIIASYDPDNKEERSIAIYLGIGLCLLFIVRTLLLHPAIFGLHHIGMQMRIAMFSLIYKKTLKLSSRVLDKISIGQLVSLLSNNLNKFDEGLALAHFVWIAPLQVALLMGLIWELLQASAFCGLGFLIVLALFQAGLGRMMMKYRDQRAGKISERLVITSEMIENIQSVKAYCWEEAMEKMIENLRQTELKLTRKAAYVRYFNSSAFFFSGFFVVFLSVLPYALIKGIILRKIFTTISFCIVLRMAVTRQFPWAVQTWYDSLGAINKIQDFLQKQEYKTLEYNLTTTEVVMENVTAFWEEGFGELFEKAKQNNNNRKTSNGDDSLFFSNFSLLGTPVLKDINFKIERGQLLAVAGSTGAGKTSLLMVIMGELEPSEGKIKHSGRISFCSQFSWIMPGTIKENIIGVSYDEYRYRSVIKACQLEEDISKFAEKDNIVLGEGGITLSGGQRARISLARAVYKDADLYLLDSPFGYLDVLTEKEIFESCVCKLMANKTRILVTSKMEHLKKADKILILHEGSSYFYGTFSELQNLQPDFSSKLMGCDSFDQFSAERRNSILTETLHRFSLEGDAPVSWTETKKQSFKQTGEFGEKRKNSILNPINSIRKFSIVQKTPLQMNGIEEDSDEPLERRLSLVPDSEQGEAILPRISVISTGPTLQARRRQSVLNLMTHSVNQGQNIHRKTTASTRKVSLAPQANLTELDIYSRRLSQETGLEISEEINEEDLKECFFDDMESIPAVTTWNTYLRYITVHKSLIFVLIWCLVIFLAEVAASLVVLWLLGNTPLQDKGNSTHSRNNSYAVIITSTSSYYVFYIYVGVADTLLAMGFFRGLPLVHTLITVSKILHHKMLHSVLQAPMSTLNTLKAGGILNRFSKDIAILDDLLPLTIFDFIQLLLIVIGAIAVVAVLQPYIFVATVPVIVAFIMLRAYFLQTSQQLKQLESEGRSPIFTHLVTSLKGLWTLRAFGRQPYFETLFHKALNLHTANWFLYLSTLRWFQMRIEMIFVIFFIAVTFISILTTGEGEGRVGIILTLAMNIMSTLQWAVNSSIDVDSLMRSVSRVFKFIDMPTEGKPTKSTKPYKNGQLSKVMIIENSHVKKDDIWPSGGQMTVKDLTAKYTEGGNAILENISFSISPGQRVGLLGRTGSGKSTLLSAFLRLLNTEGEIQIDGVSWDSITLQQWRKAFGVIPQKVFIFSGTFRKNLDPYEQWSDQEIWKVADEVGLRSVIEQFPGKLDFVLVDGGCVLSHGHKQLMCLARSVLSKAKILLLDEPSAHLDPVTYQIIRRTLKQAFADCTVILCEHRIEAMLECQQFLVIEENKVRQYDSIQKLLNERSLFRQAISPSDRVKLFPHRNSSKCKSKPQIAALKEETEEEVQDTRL

Ent. A Max Activity (Table 7)	pEC50 (Table 7)	Ent. A Max Activity (Table 6)	pEC50 (Table 6)	Compound
++ (++ is 30-60%)	> 6.00	–	–	COc1ccc(CN2C(=O)c3cccc(c3)S(=O)(=O)Nc3nc(cc(-c4c(C)cccc4C)n3)OC[C@H]2CC2(C(F)(F)F)CC2)cc1 [Compound 678]
+++ (+++ is >60%)	> 6.00	–	–	COC(=O)c1ccc(CN2C(=O)c3cccc(c3)S(=O)(=O)Nc3nc(cc(-c4c(C)cccc4C)n3)OC[C@H]2CC(C)C)cn1 [Compound 95, Methyl 5-{[(11R)-6-(2,6-Dimethylphenyl)-11-(2-methylpropyl)-2,2,13-trioxo-9-oxa-2λ^6-thia-3,5,12,19-tetraazatricyclo[12.3.1.14,8]nonadeca-1(18),4(19),5,7,14,16-hexaen-12-yl]methyl}pyridine-2-carboxylate]
–	–	+++ (+++ is >60%)	> 6.00	COc1cccc(CN2C(=O)c3cccc(c3)S(=O)(=O)Nc3nc(cc(-c4c(C)cccc4C)n3)OC[C@H]2CC(C)C)n1 [Compound 423]
++ (++ is 30-60%)	5.52 to 6.00	–	–	Cc1cccc(C)c1-c1cc2nc(n1)NS(=O)(=O)c1cccc(c1)C(=O)N(CCC(C)(C)C)[C@H](CC(F)(F)F)CO2 [Compound 984]
–	–	+++ (+++ is >60%)	5.52 to 6.00	Cc1cccc(C)c1-c1cc2nc(n1)NS(=O)(=O)c1cccc(c1)C(=O)N(Cc1ccc[nH]c1=O)[C@H](CC(C)C)CO2 [Compound 989]
–	–	+++ (+++ is >60%)	> 6.00	COc1cccc(CN2C(=O)c3cccc(c3)S(=O)(=O)Nc3nc(cc(-c4c(C)cccc4C)n3)OC[C@H]2CC(C)C)c1 [Compound 348]
–	–	+++ (+++ is >60%)	5.52 to 6.00	Cc1cccc(C)c1-c1cc2nc(n1)NS(=O)(=O)c1cccc(c1)C(=O)N(CC1CCN(C)CC1)[C@H](CC(C)(C)C)CO2 [Compound 426]
–	–	++ (++ is 30-60%)	> 6.00	Cc1cccc(C)c1-c1cc2nc(n1)NS(=O)(=O)c1cccc(c1)CN(Cc1ccccc1)[C@H](CC(C)C)CO2 [Compound 1044]
+++ (+++ is >60%)	> 6.00	–	–	Cc1cccc(C)c1-c1cc2nc(n1)NS(=O)(=O)c1cccc(c1)C(=O)N(CC1CC3(CCN(C)CC3)C1)[C@H](CC(C)C)CO2 [Compound 89, (11R)-6-(2,6-Dimethylphenyl)-11-isobutyl-12-[(7-methyl-7-azaspiro[3.5]nonan-2-yl)methyl]-2,2-dioxo-9-oxa-2λ^6-thia-3,5,12,19-tetrazatricyclo[12.3.1.14,8]nonadeca-1(18),4(19),5,7,14,16-hexaen-13-one]
–	–	++ (++ is 30-60%)	> 6.00	Cc1cccc(C)c1-c1cc2nc(n1)NS(=O)(=O)c1cccc(c1)C(=O)N(Cc1ccccc1)[C@H](CCC1(C(F)(F)F)CC1)CO2 [Compound 853]
–	–	+++ (+++ is >60%)	> 6.00	Cc1cccc(C)c1-c1cc2nc(n1)NS(=O)(=O)c1cccc(c1)C(=O)N(CCOC(C)(C)C)[C@H](CC(C)C)CO2 [Compound 427]
–	–	++ (++ is 30-60%)	5.52 to 6.00	Cc1cccc(C)c1-c1cc2nc(n1)NS(=O)(=O)c1cccc(c1)C(=O)N(Cc1ccc(P(C)(C)=O)cc1)[C@H](CC(C)C)CO2 [Compound 88, (11R)-6-(2,6-Dimethylphenyl)-12-[(4-dimethylphosphorylphenyl)methyl]-11-isobutyl-2,2-dioxo-9-oxa-2λ^6-thia-3,5,12,19-tetrazatricyclo[12.3.1.14,8]nonadeca-1(18),4(19),5,7,14,16-hexaen-13-one]
–	–	+++ (+++ is >60%)	5.52 to 6.00	Cc1cccc(C)c1-c1cc2nc(n1)NS(=O)(=O)c1cccc(c1)C(=O)N(Cc1ccccn1)CCCO2 [Compound 5, 6-(2,6-Dimethylphenyl)-2,2-dioxo-13-(2-pyridylmethyl)-9-oxa-2λ^6-thia-3,5,13,20-tetrazatricyclo[13.3.1.14,8]icosa-1(19),4(20),5,7,15,17-hexaen-14-one]
–	–	++ (++ is 30-60%)	4.52 to 5.52	Cc1cccc(C)c1-c1cc2nc(n1)NS(=O)(=O)c1cccc(c1)C(=O)N(CCCC(=O)O)[C@H](CC(C)C)CO2 [Compound 359]
–	–	+++ (+++ is >60%)	> 6.00	Cc1ccccc1CN1C(=O)c2cccc(c2)S(=O)(=O)Nc2nc(cc(-c3c(C)cccc3C)n2)OC[C@H]1CC(C)C [Compound 356]
+ (+ is <30%)	> 6.00	–	–	Cc1cccc(C)c1-c1cc2nc(n1)NS(=O)(=O)c1cccc(c1)C(=O)N(CCC(C)(C)C)[C@H](CC1(C(F)(F)F)CC1)CO2 [Compound 686]
+++ (+++ is >60%)	> 6.00	–	–	Cc1cccc(C)c1-c1cc2nc(n1)NS(=O)(=O)c1cccc(c1)C(=O)N(C)[C@H](c1ccc(C(C)(C)C)cc1)CO2 [Compound 1011]

Ent. A Max Activity (Table 7)	pEC50 (Table 7)	Ent. A Max Activity (Table 6)	pEC50 (Table 6)	Compound
+++ (+++ is >60%)	> 6.00	–	–	Cc1cccc(C)c1-c1cc2nc(n1)NS(=O)(=O)c1cccc(c1)CN(Cc1cccnc1OCC1CC1)[C@H](CC(C)C)CO2 [Compound 1028]
–	–	+++ (+++ is >60%)	> 6.00	Cc1cccc(C)c1-c1cc2nc(n1)NS(=O)(=O)c1cccc(c1)C(=O)N(C)[C@H](CC(C)C)[C@H](C)O2 [Compound 991]
–	–	+++ (+++ is >60%)	> 6.00	Cc1cccc(C)c1-c1cc2nc(n1)NS(=O)(=O)c1cccc(c1)C(=O)N(CC(O)CO)[C@H](CC(C)C)CO2 (stereo in doubt) [Compound 39, (11R)-12-[(2S)-2,3-Dihydroxypropyl]-6-(2,6-dimethylphenyl)-11-(2-methylpropyl)-9-oxa-2λ^6-thia-3,5,12,19-tetraazatricyclo[12.3.1.14,8]nonadeca-1(17),4(19),5,7,14(18),15-hexaene-2,2,13-trione]
–	–	+ (+ is <30%)	–	Cc1cccc(C)c1-c1cc2nc(n1)NS(=O)(=O)c1cccc(c1)C(=O)N(CCC1CCOCC1)[C@H](CCC1(C(F)(F)F)CC1)CO2 (single isomer, unassigned) [Compound 73, 6-(2,6-dimethylphenyl)-2,2-dioxo-12-(2-tetrahydropyran-4-ylethyl)-11-[2-[1-(trifluoromethyl)cyclopropyl]ethyl]-9-oxa-2λ^6-thia-3,5,12,19-tetrazatricyclo[12.3.1.14,8]nonadeca-1(18),4(19),5,7,14,16-hexaen-13-one]
+++ (+++ is >60%)	> 6.00	–	–	Cc1cccc(C)c1-c1cc2nc(n1)NS(=O)(=O)c1cccc(c1)C(=O)N(CC1CC3(CCN(C(C)C)CC3)C1)[C@H](CC(C)C)CO2 [Compound 415]
+++ (+++ is >60%)	> 6.00	–	–	CC(=O)N1CCC2(CC1)CC(CN1C(=O)c3cccc(c3)S(=O)(=O)Nc3nc(cc(-c4c(C)cccc4C)n3)OC[C@H]1CC(C)C)C2 [Compound 90, (11R)-12-[(7-Acetyl-7-azaspiro[3.5]nonan-2-yl)methyl]-6-(2,6-dimethylphenyl)-11-isobutyl-2,2-dioxo-9-oxa-2λ^6-thia-3,5,12,19-tetrazatricyclo[12.3.1.14,8]nonadeca-1(18),4(19),5,7,14,16-hexaen-13-one]
+++ (+++ is >60%)	> 6.00	–	–	Cc1cccc(C)c1-c1cc2nc(n1)NS(=O)(=O)c1cccc(c1)C(=O)N(Cc1ccc(C(=O)N(C)C)nc1)[C@H](CC(C)C)CO2 [Compound 981]
–	–	+++ (+++ is >60%)	> 6.00	Cc1cccc(C)c1-c1cc2nc(n1)NS(=O)(=O)c1cccc(c1)C(=O)N(Cc1cc3n(n1)CCNC3=O)[C@H](CC(C)C)CO2 [Compound 41, (11R)-6-(2,6-dimethylphenyl)-11-isobutyl-2,2-dioxo-12-[(4-oxo-6,7-dihydro-5H-pyrazolo[1,5-a]pyrazin-2-yl)methyl]-9-oxa-2λ^6-thia-3,5,12,19-tetrazatricyclo[12.3.1.14,8]nonadeca-1(18),4(19),5,7,14,16-hexaen-13-one]
–	–	+++ (+++ is >60%)	> 6.00	COc1ncccc1CN1C(=O)c2cccc(c2)S(=O)(=O)Nc2nc(cc(-c3c(C)cccc3C)n2)OC[C@H]1CC(C)C [Compound 420]
–	–	++ (++ is 30-60%)	> 6.00	C=CC1CN(CCC(C)C)C(=O)c2cccc(c2)S(=O)(=O)Nc2nc(cc(-c3c(C)cccc3C)n2)O1 (stereo not shown) [Compound 1012]
–	–	++ (++ is 30-60%)	> 6.00	Cc1cccc(C)c1-c1cc2nc(n1)NS(=O)(=O)c1cccc(c1)C(=O)N(C)CC(c1ccc(-c3ccncc3)cc1)O2 (stereo not shown) [Compound 9, 6-(2,6-Dimethylphenyl)-12-methyl-2,2-dioxo-10-[4-(4-pyridyl)phenyl]-9-oxa-2λ^6-thia-3,5,12,19-tetrazatricyclo[12.3.1.14,8]nonadeca-1(18),4(19),5,7,14,16-hexaen-13-one]
–	–	++ (++ is 30-60%)	> 6.00	Cc1cccc(C)c1-c1cc2nc(n1)NS(=O)(=O)c1cccc(c1)C(=O)N(C)CC(c1ccc(C3=CCOCC3)cc1)O2 (stereo not shown) [Compound 675]
+++ (+++ is >60%)	> 6.00	–	–	Cc1cccc(C)c1-c1cc2nc(n1)NS(=O)(=O)c1cccc(c1)C(=O)N(Cc1ccc(N3CCC(N(C)C)CC3)nc1)[C@H](CC(C)C)CO2 [Compound 945]
++ (++ is 30-60%)	5.52 to 6.00	–	–	Cc1cccc(C)c1-c1cc2nc(n1)NS(=O)(=O)c1cccc(c1)C(=O)N(CCC1CCOCC1)[C@H](CC(F)(F)F)CO2 [Compound 982]
–	–	+ (+ is <30%)	–	Cc1cccc(C)c1-c1cc2nc(n1)NS(=O)(=O)c1cccc(c1)C(=O)N(C)CC(CNCCC(C)(C)C)O2 (stereo not shown) [Compound 1019]
+++ (+++ is >60%)	> 6.00	–	–	Cc1cccc(C)c1-c1cc2nc(n1)NS(=O)(=O)c1cccc(c1)C(=O)N(Cc1ccc(N3CCCC(O)C3)nc1)[C@H](CC(C)C)CO2 (stereo partly shown) [Compound 963]
